Laboratory results: the kinase profiling compilation of Christmann-Franck et al. (2016)

Tests used:
Experiment in all cases: KINOMEscan competition binding
Conditions in all cases: compound 10.0 µM
AKT3 (human) = AKT3 (human) (UniProt Q9Y243)
ALK (human) = ALK (human) (UniProt Q9UM73)
CDC2L2 (human) = CDC2L2 (human) (UniProt Q9UQ88)
CDK18 (human) = CDK18 (human) (UniProt Q07002)
CDK5 (human) = CDK5 (human) (UniProt Q00535)
CDKL3 (human) = CDKL3 (human) (UniProt Q8IVW4)
CPK1 (P.falciparum) = tested on: CPK1 (P.falciparum)
CSK (human) = CSK (human) (UniProt P41240)
[1] = tested on: EGFR (human), P00533 [746-750 del]
[2] = tested on: EGFR (human), P00533 [752-759 del]
EPHA8 (human) = EPHA8 (human) (UniProt P29322)
ERBB2 (human) = ERBB2 (human) (UniProt P04626)
FGFR1 (human) = FGFR1 (human) (UniProt P11362)
[3] = tested on: FLT3 (human), P36888 [D835H]
FLT4 (human) = FLT4 (human) (UniProt P35916)
GSK3A (human) = GSK3A (human) (UniProt P49840)
HIPK2 (human) = HIPK2 (human) (UniProt Q9H2X6)
ICK (human) = ICK (human) (UniProt Q9UPZ9)
IRAK4 (human) = IRAK4 (human) (UniProt Q9NWZ3)
[4] = molecular target: JAK2 JH1 catalytic (human) (UniProt O60674)
KDR (human) = KDR (human) (UniProt P35968)
LATS2 (human) = LATS2 (human) (UniProt Q9NRM7)
LIMK2 (human) = LIMK2 (human) (UniProt P53671)
LYN (human) = LYN (human) (UniProt P07948)
MAP3K6 (human) = MAP3K6 (human) (UniProt O95382)
MAP4K2 (human) = MAP4K2 (human) (UniProt Q12851)
MAPK1 (human) = MAPK1 (human) (UniProt P28482)
MAPK11 (human) = MAPK11 (human) (UniProt Q15759)
MYLK2 (human) = MYLK2 (human) (UniProt Q9H1R3)
NIM1 (human) = NIM1 (human) (UniProt Q8IY84)
[5] = tested on: PIK3CA (human), P42336 [I800L]
PIK3CA (human), P42336 [I800L], sequence (P42336 whole entry I800L, looked up): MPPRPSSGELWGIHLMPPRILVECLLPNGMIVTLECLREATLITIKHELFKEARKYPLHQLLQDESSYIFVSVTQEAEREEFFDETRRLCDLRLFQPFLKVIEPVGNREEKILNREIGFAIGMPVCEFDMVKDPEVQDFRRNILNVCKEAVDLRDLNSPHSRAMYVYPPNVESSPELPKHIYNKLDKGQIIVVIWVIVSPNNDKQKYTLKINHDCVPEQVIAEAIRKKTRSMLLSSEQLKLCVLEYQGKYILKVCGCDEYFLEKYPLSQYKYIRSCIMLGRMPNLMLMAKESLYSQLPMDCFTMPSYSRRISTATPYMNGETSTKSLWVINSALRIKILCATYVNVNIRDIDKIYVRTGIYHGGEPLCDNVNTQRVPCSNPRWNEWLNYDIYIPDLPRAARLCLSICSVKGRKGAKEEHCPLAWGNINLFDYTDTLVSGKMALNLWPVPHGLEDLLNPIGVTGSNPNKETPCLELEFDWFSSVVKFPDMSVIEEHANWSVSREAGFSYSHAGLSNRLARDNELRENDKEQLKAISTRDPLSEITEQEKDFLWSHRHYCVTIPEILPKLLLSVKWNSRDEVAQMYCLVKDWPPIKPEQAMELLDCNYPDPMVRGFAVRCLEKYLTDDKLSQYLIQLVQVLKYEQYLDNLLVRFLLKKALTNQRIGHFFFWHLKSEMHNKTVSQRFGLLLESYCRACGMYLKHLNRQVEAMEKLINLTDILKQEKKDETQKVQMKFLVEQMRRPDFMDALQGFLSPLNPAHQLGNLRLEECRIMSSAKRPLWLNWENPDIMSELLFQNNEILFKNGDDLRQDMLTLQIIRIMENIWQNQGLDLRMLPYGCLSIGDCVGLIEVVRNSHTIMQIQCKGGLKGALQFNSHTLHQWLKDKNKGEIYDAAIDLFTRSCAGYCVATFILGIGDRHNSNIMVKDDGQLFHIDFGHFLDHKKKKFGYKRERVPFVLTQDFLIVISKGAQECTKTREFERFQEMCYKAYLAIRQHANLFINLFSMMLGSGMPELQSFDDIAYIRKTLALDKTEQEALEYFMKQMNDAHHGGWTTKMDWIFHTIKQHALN

PIP4K2C (human) = PIP4K2C (human) (UniProt Q8TBX8)
PRPF4B (human) = PRPF4B (human) (UniProt Q13523)
PTK2 (human) = PTK2 (human) (UniProt Q05397)
RPS6KA4 KD1 (human) = RPS6KA4 KD1 (human) (UniProt O75676)
RPS6KA5 KD2 (human) = RPS6KA5 KD2 (human) (UniProt O75582)
TAOK2 (human) = TAOK2 (human) (UniProt Q9UL54)
TAOK2 (human), sequence (Q9UL54 whole entry, looked up): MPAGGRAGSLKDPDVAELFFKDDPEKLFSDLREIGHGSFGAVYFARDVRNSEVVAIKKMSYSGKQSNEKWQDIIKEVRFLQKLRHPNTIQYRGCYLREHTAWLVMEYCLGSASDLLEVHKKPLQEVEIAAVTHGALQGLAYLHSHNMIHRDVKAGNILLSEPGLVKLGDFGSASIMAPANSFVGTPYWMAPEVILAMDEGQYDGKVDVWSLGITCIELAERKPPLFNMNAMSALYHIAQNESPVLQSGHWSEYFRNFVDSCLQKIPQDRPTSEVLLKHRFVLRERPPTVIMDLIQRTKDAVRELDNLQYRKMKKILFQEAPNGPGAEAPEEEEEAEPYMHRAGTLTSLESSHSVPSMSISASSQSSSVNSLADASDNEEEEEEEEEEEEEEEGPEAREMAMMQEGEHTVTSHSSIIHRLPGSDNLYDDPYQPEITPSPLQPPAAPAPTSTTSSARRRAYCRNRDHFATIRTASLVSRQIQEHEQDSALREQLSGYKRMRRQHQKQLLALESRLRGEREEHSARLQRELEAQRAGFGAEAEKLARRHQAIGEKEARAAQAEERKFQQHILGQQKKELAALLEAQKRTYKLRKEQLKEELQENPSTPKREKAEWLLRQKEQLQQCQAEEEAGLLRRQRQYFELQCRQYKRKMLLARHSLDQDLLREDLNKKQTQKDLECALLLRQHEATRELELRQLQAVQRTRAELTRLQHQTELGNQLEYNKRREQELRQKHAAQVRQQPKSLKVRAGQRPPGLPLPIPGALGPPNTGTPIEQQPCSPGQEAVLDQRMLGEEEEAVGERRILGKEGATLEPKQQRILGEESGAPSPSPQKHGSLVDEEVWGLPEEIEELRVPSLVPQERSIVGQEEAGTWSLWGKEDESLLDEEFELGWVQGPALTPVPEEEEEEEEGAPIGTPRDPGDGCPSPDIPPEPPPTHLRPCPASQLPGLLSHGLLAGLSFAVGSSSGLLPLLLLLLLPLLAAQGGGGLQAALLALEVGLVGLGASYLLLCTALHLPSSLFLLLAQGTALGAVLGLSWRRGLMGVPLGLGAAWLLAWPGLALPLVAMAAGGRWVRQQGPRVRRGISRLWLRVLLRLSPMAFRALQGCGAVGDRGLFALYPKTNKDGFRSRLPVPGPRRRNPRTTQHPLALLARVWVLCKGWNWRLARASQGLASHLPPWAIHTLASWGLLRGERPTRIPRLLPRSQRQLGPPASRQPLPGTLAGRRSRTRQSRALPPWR

TSSK1B (human) = TSSK1B (human) (UniProt Q9BXA7)
TSSK1B (human), sequence (Q9BXA7 whole entry, looked up): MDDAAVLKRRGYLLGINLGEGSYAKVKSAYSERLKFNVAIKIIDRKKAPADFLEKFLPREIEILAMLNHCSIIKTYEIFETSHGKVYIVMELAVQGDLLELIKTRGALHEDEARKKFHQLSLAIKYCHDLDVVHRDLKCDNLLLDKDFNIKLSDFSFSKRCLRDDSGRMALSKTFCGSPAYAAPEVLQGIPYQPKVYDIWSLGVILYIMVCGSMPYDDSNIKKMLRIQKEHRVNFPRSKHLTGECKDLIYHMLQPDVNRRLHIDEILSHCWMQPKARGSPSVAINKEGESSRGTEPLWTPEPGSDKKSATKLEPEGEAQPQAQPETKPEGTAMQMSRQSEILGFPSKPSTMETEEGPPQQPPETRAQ

TXK (human) = TXK (human) (UniProt P42681)
TXK (human), sequence (P42681 whole entry, looked up): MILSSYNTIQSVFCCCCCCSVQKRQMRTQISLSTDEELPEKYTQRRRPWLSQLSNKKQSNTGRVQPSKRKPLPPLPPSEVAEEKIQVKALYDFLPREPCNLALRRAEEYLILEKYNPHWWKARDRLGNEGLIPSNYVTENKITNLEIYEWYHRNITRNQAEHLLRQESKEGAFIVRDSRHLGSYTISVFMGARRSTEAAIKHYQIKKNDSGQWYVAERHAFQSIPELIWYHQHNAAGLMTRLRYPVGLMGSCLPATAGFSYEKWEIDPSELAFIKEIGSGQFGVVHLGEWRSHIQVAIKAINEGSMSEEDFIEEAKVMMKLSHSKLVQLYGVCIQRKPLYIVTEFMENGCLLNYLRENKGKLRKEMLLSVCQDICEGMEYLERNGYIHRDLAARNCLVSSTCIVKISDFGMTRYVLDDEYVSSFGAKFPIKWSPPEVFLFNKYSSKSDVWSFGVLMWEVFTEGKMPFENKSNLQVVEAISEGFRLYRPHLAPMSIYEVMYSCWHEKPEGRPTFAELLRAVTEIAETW

[6] = molecular target: TYK2 JH1 catalytic (human) (UniProt P29597)
ULK1 (human) = ULK1 (human) (UniProt O75385)
ULK1 (human), sequence (O75385 whole entry, looked up): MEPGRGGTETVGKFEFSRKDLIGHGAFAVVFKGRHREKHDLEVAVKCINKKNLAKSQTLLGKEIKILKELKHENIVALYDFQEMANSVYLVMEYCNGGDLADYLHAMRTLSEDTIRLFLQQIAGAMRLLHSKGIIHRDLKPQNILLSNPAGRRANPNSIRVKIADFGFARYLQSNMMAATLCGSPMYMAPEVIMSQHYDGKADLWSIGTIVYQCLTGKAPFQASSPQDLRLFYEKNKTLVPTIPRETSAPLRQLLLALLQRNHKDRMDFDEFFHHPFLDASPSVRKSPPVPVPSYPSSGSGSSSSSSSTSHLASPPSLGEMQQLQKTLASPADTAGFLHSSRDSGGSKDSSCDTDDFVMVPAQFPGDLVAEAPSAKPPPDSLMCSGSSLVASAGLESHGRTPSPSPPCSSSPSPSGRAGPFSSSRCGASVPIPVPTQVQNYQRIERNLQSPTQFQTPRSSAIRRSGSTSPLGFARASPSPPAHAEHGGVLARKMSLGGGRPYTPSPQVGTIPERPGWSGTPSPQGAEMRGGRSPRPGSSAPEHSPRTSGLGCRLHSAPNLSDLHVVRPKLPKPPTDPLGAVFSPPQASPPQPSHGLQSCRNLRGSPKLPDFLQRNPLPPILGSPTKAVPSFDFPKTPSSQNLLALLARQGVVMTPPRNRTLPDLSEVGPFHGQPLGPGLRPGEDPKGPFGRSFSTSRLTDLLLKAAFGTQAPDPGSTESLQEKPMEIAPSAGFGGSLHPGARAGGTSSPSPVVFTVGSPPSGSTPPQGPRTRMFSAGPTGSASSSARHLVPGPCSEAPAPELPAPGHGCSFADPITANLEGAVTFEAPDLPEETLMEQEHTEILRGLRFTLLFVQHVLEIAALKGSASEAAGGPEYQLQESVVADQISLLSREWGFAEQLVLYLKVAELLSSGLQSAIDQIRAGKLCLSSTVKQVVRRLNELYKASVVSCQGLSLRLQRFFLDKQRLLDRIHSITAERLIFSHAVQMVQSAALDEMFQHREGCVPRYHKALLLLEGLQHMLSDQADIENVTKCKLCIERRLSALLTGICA

CDC2L2 (human), sequence (Q9UQ88 whole entry, looked up): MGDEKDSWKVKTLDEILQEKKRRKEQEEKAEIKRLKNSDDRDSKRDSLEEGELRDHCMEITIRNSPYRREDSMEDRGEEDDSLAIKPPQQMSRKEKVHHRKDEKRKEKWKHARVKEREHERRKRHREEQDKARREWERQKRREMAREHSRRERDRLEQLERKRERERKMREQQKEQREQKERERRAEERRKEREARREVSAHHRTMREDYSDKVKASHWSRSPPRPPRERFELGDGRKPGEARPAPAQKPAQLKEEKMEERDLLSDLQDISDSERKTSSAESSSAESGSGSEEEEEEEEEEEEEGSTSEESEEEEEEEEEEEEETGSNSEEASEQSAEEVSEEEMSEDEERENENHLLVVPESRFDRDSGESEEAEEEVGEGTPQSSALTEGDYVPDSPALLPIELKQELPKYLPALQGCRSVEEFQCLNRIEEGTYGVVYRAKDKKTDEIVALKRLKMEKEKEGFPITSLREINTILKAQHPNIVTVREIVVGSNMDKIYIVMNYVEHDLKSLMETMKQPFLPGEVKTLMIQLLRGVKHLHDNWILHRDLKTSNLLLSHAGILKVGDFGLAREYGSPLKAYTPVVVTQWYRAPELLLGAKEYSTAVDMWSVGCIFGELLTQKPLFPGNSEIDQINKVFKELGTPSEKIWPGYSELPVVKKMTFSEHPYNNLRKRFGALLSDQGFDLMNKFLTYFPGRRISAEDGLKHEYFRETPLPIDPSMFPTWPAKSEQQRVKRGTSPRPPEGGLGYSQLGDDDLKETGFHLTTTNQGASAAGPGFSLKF

With `Cc1ccc(NC(=O)c2ccc(NC(=O)/C=C/CN(C)C)cc2)cc1Nc1nccc(-c2cccnc2)n1` the kinase still bound, per cent of control (AKT3 (human)) was 100%, the kinase still bound, per cent of control (ALK (human)) was 100% and the kinase still bound, per cent of control (CDC2L2 (human)) was 100%. For the same molecule, the kinase still bound, per cent of control (CDK18 (human)) was 85%, the kinase still bound, per cent of control (CDK5 (human)) was 100% and the kinase still bound, per cent of control (CDKL3 (human)) was 100%. For the same molecule, the kinase still bound, per cent of control (CPK1 (P.falciparum)) was 86%, the kinase still bound, per cent of control (CSK (human)) was 100% and the kinase still bound, per cent of control [1] was 61%. The kinase still bound, per cent of control [2] was 54%, the kinase still bound, per cent of control (EPHA8 (human)) was 81% and the kinase still bound, per cent of control (ERBB2 (human)) was 50%. The kinase still bound, per cent of control (FGFR1 (human)) was 87%, the kinase still bound, per cent of control [3] was 66% and the kinase still bound, per cent of control (FLT4 (human)) was 88%. It also gave a kinase still bound, per cent of control (GSK3A (human)) of 100%, a kinase still bound, per cent of control (HIPK2 (human)) of 54% and a kinase still bound, per cent of control (ICK (human)) of 82%. The kinase still bound, per cent of control (IRAK4 (human)) was 81%, the kinase still bound, per cent of control [4] was 39% and the kinase still bound, per cent of control (KDR (human)) was 85%. For the same molecule, the kinase still bound, per cent of control (LATS2 (human)) was 100%, the kinase still bound, per cent of control (LIMK2 (human)) was 78% and the kinase still bound, per cent of control (LYN (human)) was 54%. The kinase still bound, per cent of control (MAP3K6 (human)) was 100%, the kinase still bound, per cent of control (MAP4K2 (human)) was 81% and the kinase still bound, per cent of control (MAPK1 (human)) was 82%. The kinase still bound, per cent of control (MAPK11 (human)) was 49%, the kinase still bound, per cent of control (MYLK2 (human)) was 68% and the kinase still bound, per cent of control (NIM1 (human)) was 92%. The kinase still bound, per cent of control [5] was 88%, the kinase still bound, per cent of control (PIP4K2C (human)) was 2% and the kinase still bound, per cent of control (PRPF4B (human)) was 100%. The kinase still bound, per cent of control (PTK2 (human)) was 70%, the kinase still bound, per cent of control (RPS6KA4 KD1 (human)) was 100% and the kinase still bound, per cent of control (RPS6KA5 KD2 (human)) was 100%. It also gave a kinase still bound, per cent of control (TAOK2 (human)) of 61%, a kinase still bound, per cent of control (TSSK1B (human)) of 100% and a kinase still bound, per cent of control (TXK (human)) of 94%. The kinase still bound, per cent of control [6] was 92% and the kinase still bound, per cent of control (ULK1 (human)) was 23%.
